According to article PMC9645260, “Small-molecule inhibitors of P-Rex guanine-nucleotide exchange factors” (Small GTPases, 2022):

Legend:
[1] = system: DOCK2; design: method as in PMID 22520755; details: cited from earlier work
[2] = target: T1, P-Rex1 DHPH domain (Homo sapiens, UniProt Q8TCU6); test: Mant-GTP GEF activity assay; assay type: biochemical; details: 10 µM
T1 construct: 100 nM EE-P-Rex1 DHPH domains (PREX-in1, compounds 2–10 and 30–128); made in house; host or cells: Sf9 cells (baculovirus)
Method: The mant-GTP GEF activity assay measures the binding of fluorescent 2’/3’-O-(N-Methyl-anthraniloyl)-guanosine-5’-triphosphate (mant)-GTP to Rac, making use of the spectroscopic differences between bound and free mant-GTP. P-Rex1 DHPH domain protein was diluted to 375 nM in exchange buffer (20 mM Tris, pH 7.5 RT, 50 mM NaCl, 200 mM KCl, 4 mM MgCl2, 50 μg/ml fatty-acid-free BSA). The inhibitors PREX-in1 or EHop-016 were diluted to various concentrations in exchange buffer containing 15% DMSO. 4.4 µl P-Rex1 DHPH domain protein were incubated with 1.1 µl PREX-in1 or EHop-016 for 30 min at 30°C, or were mock treated with 1.1 µl vehicle (15% DMSO). 5 μl of the P-Rex1 DHPH / inhibitor mix was then added to 10 µl of a 1.5x reaction mix containing 225 nM bacteria-derived EE-Rac1, 7.5 µM mant-GTP and 15 µM GTP in exchange buffer in a 96-well plate. Final assay concentrations were 150 nM EE-Rac1, 100 nM P-Rex1 DHPH domain, 5 μM mant-GTP, 10 µM GTP, […] fatty-acid-free BSA, 1% DMSO, and the indicated concentrations of inhibitor. Mant-GTP fluorescence was measured in real time in a PHERAstar 384-well fluorescence plate reader at 25°C for 40 min using 360 nm excitation and 440 nm emission.

[3] = system: Rac-dependent cell responses; design: method as in PMID 22383527; details: lamellipodia formation and migration; cited from earlier work
[4] = target: T2, full-length P-Rex1 (Homo sapiens, UniProt Q8TCU6); test: Liposome-based GEF activity assay, PIP3-stimulated full-length P-Rex1; assay type: biochemical; details: 200 µM, pilot experiments, EE-Rac2 substrate
T2 construct: Full-length N-terminally EE-tagged P-Rex1, P-Rex2, the P-Rex1 DH and DHPH domains and the P-Rex2 DH domain were produced in Sf9 cells; made in house; host or cells: Sf9 cells (baculovirus)
Excerpt: All small GTPases and GEFs used were human recombinant proteins. EE-Rac1, EE-Rac2, GST-Cdc42 or GST-RhoA were expressed in Sf9 cells by baculoviral transduction and purified using their epitope tag in their post-translationally prenylated form using Triton X-114 phase separation, essentially as previously described. Briefly, frozen pellets from a 1 litre culture of Sf9 cells transduced with high-titre baculovirus expressing the small GTPase were resuspended in ice-cold Sf9-cell lysis buffer 1 (1x PBS, 40 mM HEPES pH 7.5 at RT, 5 mM MgCl2, 10 mM EGTA, 300 µM GDP, 1 mM DTT, 200 µM PMSF, 20 μg/ml each of leupeptin, pepstatin A, aprotinin and antipain) and lysed by sonication. Triton X-114 was added (to 1% final concentration), and samples were ultracentrifuged at 118,000 × g for 50 min at 4°C. The supernatant was warmed at 37°C until cloudy (30–60 seconds) and centrifuged at 1300 × g for 2 min at 37°C. The upper phase containing non-lipid modified GTPase was discarded and replaced with ice-cold Sf9-cell lysis buffer. The warming/centrifugation steps were repeated twice and lipid-modified GTPase resuspended in ice-cold Sf9-cell lysis buffer 1 supplemented with Triton X-100 (1% final concentration), followed by ultracentrifugation at 118,000 × g for 50 min at 4°C. For EE-tagged GTPases, supernatants were incubated with anti-EE antibody covalently coupled to protein G-Sepharose beads (anti-EE beads, Onyx Pharmaceuticals) and incubated with end-over-end rotation for 90 min on ice. Beads were washed 3 times in wash buffer (PBS, 5 mM MgCl2, 1 mM DTT, 10 μM GDP, 1 mM EGTA, 0.2% Triton X-100) and 5x in elution buffer (40 mM HEPES pH 7.5, 150 mM NaCl, 5 mM MgCl2, 1 mM EGTA, 1 mM DTT, 10 µM GDP). Protein was eluted by three incubations with elution buffer containing peptide Ac-EEYMPME (Activotec, Comberton, UK) and cholate (first 1%, then twice 0.5%) for 20 min on ice. For GST-tagged GTPases, supernatants were incubated with glutathione Sepharose beads and were eluted with glutathione in the same manner. Proteins were concentrated in a YM-10 Centricon (Millipore) at 5000 × g, 4°C. Protein concentration and purity was determined by coomassie staining of SDS-PAGE gels. For use in the mant-GTP assay, EE-Rac 1 was expressed in BL21 (DE3) bacteria (NEB, C25271), by induction with 0.5 mM IPTG overnight at 18°C. Bacterial pellets from 500 ml cultures were resuspended in 20 ml bacterial lysis buffer (40 mM Hepes, pH 7.5 at 4°C, 150 mM NaCl, 1% Triton X-100, 5 mM MgCl2, 1 mM DTT, 300 μM GDP, 200 µM PMSF, and 20 μg/ml each of leupeptin, pepstatin A, aprotinin and antipain) and were lysed by sonication. 5 μg/ml DNAse and 5 μg/ml RNAse were added and the lysate incubated on ice for 10 min. […]

[5] = system: HEK-293 cells; test: Cell cycle stages by propidium iodide flow cytometry; assay type: cell-based; details: 24 h treatment, 10 µM
Method: Human embryonic kidney 293 (HEK-293) cells were grown at 37°C in a humidified 5% CO2 atmosphere in Dulbecco’s modified Eagle medium (DMEM, Gibco) supplemented with 10% foetal bovine serum (FBS), 100 units/ml penicillin and 100 µg/ml streptomycin. Cells were passaged by tryptic digest 1:4 approximately every 2 days. To measure cell cycle stages, 2 ml HEK293 cells were plated per well of a 6-well dish (Thermo Scientific, Nunc) at 10^5 cells/ml. After 24 h, the medium was replaced with fresh medium containing various concentrations of PREX-in1, as indicated, or 10 μM NSC23766, or vehicle control (0.1% DMSO), and cells were incubated for a further 24 h. The medium was removed but kept aside to recover any detached cells. Wells were washed with PBS, and cells recovered by trypsinization. Cell suspensions were pooled with the culture supernatant and centrifuged at 433 × g for 5 min at RT. Cells were washed in PBS, resuspended in ice-cold 70% ethanol/PBS, and incubated for 30 min at 4°C for fixation and permeabilization. Cells were washed once more in PBS, then stained with 50 µg/ml propidium iodide in PBS containing 100 µg/ml RNase for 30 min at 37°C. Cells were analysed by flow cytometry for the intensity of propidium iodide staining using a FACSCalibur flow cytometer. 10,000 cells were analysed per sample. Data analysis was done using FloJo software.

[6] = system: TrioN; design: method as in PMID 15128949; details: cited from earlier work
[7] = system: Tiam1; design: method as in PMID 15128949; details: cited from earlier work

T2 sequence (Q8TCU6 whole entry, the tested form may be a part): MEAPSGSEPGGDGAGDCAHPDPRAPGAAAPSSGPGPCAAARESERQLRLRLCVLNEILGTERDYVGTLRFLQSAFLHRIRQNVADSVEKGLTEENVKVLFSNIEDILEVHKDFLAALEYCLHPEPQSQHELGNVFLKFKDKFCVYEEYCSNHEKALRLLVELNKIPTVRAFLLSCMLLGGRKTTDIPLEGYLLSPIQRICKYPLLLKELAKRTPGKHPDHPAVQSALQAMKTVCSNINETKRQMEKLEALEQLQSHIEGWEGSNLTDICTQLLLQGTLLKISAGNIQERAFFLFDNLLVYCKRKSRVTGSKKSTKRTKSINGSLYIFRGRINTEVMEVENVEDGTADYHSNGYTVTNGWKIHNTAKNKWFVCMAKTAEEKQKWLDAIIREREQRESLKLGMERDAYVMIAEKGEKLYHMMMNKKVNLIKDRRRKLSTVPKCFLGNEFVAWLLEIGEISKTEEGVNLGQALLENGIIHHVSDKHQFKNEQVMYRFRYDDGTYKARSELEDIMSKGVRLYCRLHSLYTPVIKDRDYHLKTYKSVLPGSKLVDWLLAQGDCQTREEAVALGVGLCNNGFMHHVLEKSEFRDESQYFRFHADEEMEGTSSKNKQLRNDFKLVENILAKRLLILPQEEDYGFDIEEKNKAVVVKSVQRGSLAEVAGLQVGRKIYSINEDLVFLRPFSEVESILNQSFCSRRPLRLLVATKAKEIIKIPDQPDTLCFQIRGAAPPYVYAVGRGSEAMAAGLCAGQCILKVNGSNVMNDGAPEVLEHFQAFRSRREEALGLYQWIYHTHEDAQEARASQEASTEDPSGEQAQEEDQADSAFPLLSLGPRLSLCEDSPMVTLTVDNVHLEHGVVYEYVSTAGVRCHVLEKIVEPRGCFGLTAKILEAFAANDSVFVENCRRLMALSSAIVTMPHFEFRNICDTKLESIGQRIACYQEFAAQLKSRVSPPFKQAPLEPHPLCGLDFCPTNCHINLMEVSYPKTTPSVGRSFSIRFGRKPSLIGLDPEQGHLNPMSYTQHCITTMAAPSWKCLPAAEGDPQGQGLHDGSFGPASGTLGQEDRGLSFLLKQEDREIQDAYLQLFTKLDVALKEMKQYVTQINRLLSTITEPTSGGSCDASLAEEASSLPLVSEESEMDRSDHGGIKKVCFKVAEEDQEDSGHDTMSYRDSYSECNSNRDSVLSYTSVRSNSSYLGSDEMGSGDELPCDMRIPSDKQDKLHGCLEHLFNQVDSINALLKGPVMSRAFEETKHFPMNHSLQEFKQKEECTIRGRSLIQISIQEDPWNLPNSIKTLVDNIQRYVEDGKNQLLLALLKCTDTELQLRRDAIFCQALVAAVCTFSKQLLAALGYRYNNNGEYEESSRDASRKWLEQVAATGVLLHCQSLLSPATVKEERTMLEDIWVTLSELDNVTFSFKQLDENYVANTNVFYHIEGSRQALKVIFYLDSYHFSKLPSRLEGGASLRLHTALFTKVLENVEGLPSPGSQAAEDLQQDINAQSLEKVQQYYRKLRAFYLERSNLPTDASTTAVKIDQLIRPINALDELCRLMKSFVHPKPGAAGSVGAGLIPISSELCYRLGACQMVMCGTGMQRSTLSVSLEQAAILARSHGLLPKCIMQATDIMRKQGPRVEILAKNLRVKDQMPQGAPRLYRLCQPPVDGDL
T1 sequence (Q8TCU6 49-392 limits assumed): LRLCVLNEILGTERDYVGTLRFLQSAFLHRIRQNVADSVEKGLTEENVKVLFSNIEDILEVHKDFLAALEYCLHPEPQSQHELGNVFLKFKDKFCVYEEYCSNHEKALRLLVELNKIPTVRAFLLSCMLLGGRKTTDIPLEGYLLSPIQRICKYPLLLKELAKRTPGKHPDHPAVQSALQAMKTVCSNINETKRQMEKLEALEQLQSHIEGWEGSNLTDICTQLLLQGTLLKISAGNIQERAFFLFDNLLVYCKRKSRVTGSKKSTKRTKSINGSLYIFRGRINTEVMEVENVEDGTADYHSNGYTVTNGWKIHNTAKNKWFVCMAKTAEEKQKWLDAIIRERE

**Q.** For O=C1NN(c2ccccc2)C(=O)/C1=C/C=C/c1ccccc1Cl [CPYPP], which IC50 [1] is on record?
**A.** The IC50 was 22.8 µM.

**Q.** Which “effect on P-Rex1 DHPH-dependent mant-GTP loading of Rac1” value [2] does the source give for CCn1c2ccccc2c2cc(Nc3ccnc(NCCCN4CCOCC4)n3)ccc21 [EHop-016, reference compound] here?
**A.** The value was “did not affect”.

**Q.** And the “IC50 for blocking Rac-dependent cell responses” value [3]?
**A.** Its value is “low micromolar”.

**Q.** Which results are given for CCN(CC)CCCC(C)Nc1nc(C)cc(Nc2ccc3nc(C)cc(N)c3c2)n1 (stereo not shown) [NSC23766, reference compound]?
**A.** effect on PIP3-stimulated Rac-GEF activity of full-length P-Rex1 [4]: did not appear to inhibit; cell death (sub-G1 phase) [5]: caused cell death to a similar extent; IC50 [6]: ~50 µM; IC50 [7]: ~50 µM
